The record followed here is ChEMBL document CHEMBL1201862, “PubChem BioAssay data set” (2004).

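Values below derive from 48-hour exposures of cells grown in 96-well plates, with endpoints linearly interpolated between the two concentrations bracketing the appropriate inhibition level. At the GI50, growth is halved.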 Activity calls are given as the source filed them. Cut-off read from the data, not from the text of the source: active = GI50 up to about 1.1 µM and inactive = higher.

Among the test systems are LXFL 529; DMS-114; M19-MEL; SNB-78; RXF 631; DLD-1; HOP-18; DMS-273; XF498.
What all share (test): growth of human tumour cells (NCI), 48 h

Consider `C/C(=C1/N=C(c2cc([N+](=O)[O-])ccc2Cl)N(C2=CC=C(Cl)CC2)C1=O)c1cc2ccccc2oc1=O`, for which the GI50 in the assay with LXFL 529 is 13.1 µM (inactive); in the assay on DMS-114 it was 19.3 µM (inactive); in the assay on M19-MEL, 45.5 µM (inactive); in the assay on SNB-78 it was 47.9 µM (inactive); in the assay on RXF 631, 56 µM (inactive); with DLD-1 it was 20 µM (inactive). Moreover, in the assay with HOP-18, the GI50 is 21.2 µM (inactive).
`Cc1c2ccc3ccccc3c2c[n+]2ccccc12`: the GI50 in the assay on DMS-273 was 16.2 µM (inactive); in the assay on LXFL 529, 5.36 µM (inactive); in the assay on DMS-114, 4.35 µM (inactive); in the assay on M19-MEL it was 4.48 µM (inactive); in the assay with SNB-78, 28.8 µM (inactive); in the assay with DLD-1 it was 24 µM (inactive).
Turning to `Cc1cc(NC(=O)C(=O)Cc2nc3ccccc3s2)ccc1Cl`, the GI50 in the assay with DMS-273, in the assay on LXFL 529, with DMS-114, with XF498, in the assay on M19-MEL and in the assay with SNB-78 was > 100 µM (inactive) in each case. Also, the GI50 in the assay on DLD-1 is > 100 µM (inactive); in the assay with HOP-18, 21.8 µM (inactive).
With `O=P1(Oc2ccc(Cl)cc2Cl)Oc2ccc3ccccc3c2-c2c(ccc3ccccc23)O1`, the GI50 with DMS-273 is 41.3 µM (inactive); in the assay with XF498, 24.5 µM (inactive); in the assay with M19-MEL, 19.9 µM (inactive); with SNB-78 it was 32.4 µM (inactive); in the assay on DLD-1 it was 32.1 µM (inactive); with HOP-18, 61.5 µM (inactive).
As for `COc1cccc2c1C(=O)c1c(O)c3c(c(O)c1C2=O)C[C@@](O)(C(=O)CO)CC3OC1CC(NCCCCC(OC(C)=O)OC(C)=O)C(O)C(C)O1` (stereo not given in full), the GI50 is 0.00214 µM (active) with LXFL 529; 0.00402 µM (active) in the assay on DMS-114; 0.00345 µM (active) in the assay with M19-MEL; 0.00209 µM (active) in the assay with SNB-78; 0.00137 µM (active) in the assay on RXF 631; 0.00342 µM (active) in the assay on DLD-1. Also, the GI50 with HOP-18 is 0.0033 µM (active).
Take `Cc1cccc(/N=C2\NC(=O)C(CC(=O)Nc3ccc(C)cc3C)S2)c1` (stereo not given): the GI50 in the assay with DMS-273 is > 100 µM (inactive); with LXFL 529, > 100 µM (inactive); in the assay with DMS-114, 49.8 µM (inactive); in the assay on XF498 it was 53.1 µM (inactive); with M19-MEL, > 100 µM (inactive); in the assay on SNB-78, > 100 µM (inactive). The GI50 with DLD-1 was > 100 µM (inactive).
With `COc1ccc2[nH]c3c(C)c4cc[n+](C)cc4c(C)c3c2c1`, the GI50 is 1.09 µM (active) in the assay on DMS-273; 0.412 µM (active) in the assay on DMS-114; 0.944 µM (active) in the assay with M19-MEL; 0.571 µM (active) in the assay on SNB-78; 1.87 µM (inactive) in the assay on DLD-1; 3.59 µM (inactive) in the assay with HOP-18.
As for `CC(=O)OC(CCC1(C)OC1COc1ccc(CCNC(=O)C=C(C)C)cc1)C(C)(C)OC(C)=O` (stereo not given), the GI50 with DMS-273 is 22.5 µM (inactive); in the assay on LXFL 529, 12.7 µM (inactive); in the assay on DMS-114 it was 0.19 µM (active); in the assay on XF498 it was 23.2 µM (inactive); with M19-MEL it was 19.7 µM (inactive); in the assay on SNB-78 it was 24.5 µM (inactive). The GI50 in the assay on HOP-18 was > 100 µM (inactive).
For `CC(=O)NC1COC(COC(=O)CCCCCCCCCCNC(=O)c2ccc([N+](=O)[O-])c3c(=O)c4ccccc4[nH]c23)C(O)C1OC(C)C(=O)NC(C(=O)NC(CCC(N)=O)C(=O)OCc1ccccc1)C(C)C` (stereo not given), the GI50 with DMS-273 is 8.69 µM (inactive); in the assay on LXFL 529, 17.7 µM (inactive); in the assay on DMS-114, 15.4 µM (inactive); in the assay on XF498, 5.41 µM (inactive); with M19-MEL it was 3.27 µM (inactive); in the assay with SNB-78, 10.2 µM (inactive). Also, the values for the GI50 in the assay with RXF 631, with DLD-1 and in the assay with HOP-18 were 27.7 µM (inactive), 3.21 µM (inactive) and 16.8 µM (inactive), respectively.
Take `COC(=O)C1=C(C)N(NC(=O)c2ccccc2)C2(O)CCCC(=O)C12C` (stereo not given): the GI50 with DMS-273, in the assay on LXFL 529, in the assay on DMS-114, in the assay with XF498, in the assay with SNB-78 and in the assay with RXF 631 was > 100 µM (inactive) throughout. In addition, the results for the GI50 in the assay with DLD-1 and in the assay with HOP-18 were > 100 µM (inactive) and < 0.01 µM (active), respectively.
`Cc1cc(O)nc(NN2C(Cl)C(=O)C2c2cccc(O)c2)n1` (stereo not given): the GI50 was 3.13 µM (inactive) in the assay on DMS-273; 5 µM (inactive) in the assay on LXFL 529; 5.11 µM (inactive) with DMS-114; 6.19 µM (inactive) in the assay on M19-MEL; 7.43 µM (inactive) in the assay on SNB-78; 2.39 µM (inactive) with HOP-18.
Turning to `O=[N+]([O-])c1cccc(C2=NOC3CCCC23)c1` (stereo not given), the GI50 with DMS-273, in the assay on LXFL 529, in the assay with DMS-114, in the assay with M19-MEL, in the assay on SNB-78 and in the assay with DLD-1 was > 100 µM (inactive) throughout. Besides, the GI50 in the assay with HOP-18 was > 100 µM (inactive).
With `CCOC(OCC)(OCC)C(Br)CC` (stereo not given), the GI50 in the assay with DMS-273 is 19.1 µM (inactive); in the assay with LXFL 529, 51.9 µM (inactive); with DMS-114 it was 12.5 µM (inactive); in the assay on XF498, > 100 µM (inactive); in the assay on M19-MEL it was > 100 µM (inactive); in the assay with SNB-78 it was > 100 µM (inactive). Moreover, the results for the GI50 with RXF 631, in the assay with DLD-1 and with HOP-18 were > 100 µM (inactive), 22 µM (inactive) and > 100 µM (inactive), respectively.
For `CCN(CC)C(=S)SS(C)(=O)=O`, the GI50 in the assay with DMS-273 is 20.3 µM (inactive); in the assay on LXFL 529, 16.4 µM (inactive); with M19-MEL it was 16.4 µM (inactive); in the assay on SNB-78 it was 23.7 µM (inactive); in the assay with DLD-1, 18 µM (inactive); in the assay with HOP-18, 38.2 µM (inactive).
`CCOC(=O)C12CC1(C(=O)OCC)C1CCC2C1` (stereo not given): the GI50 with DMS-273 is > 100 µM (inactive); in the assay with LXFL 529, > 100 µM (inactive); in the assay on DMS-114 it was 74.3 µM (inactive); with M19-MEL, > 100 µM (inactive); in the assay with RXF 631 it was > 100 µM (inactive); in the assay with DLD-1, > 100 µM (inactive). Further, in the assay with HOP-18, the GI50 is > 100 µM (inactive).
`O=C1CCCn2c3ccccc3c3ccnc1c32`: the GI50 in the assay with DMS-273 is 46.6 µM (inactive); in the assay with DMS-114, 35 µM (inactive); in the assay with XF498, 25.4 µM (inactive); with M19-MEL it was 41.5 µM (inactive); in the assay with SNB-78, 44.8 µM (inactive); in the assay with DLD-1 it was 38.3 µM (inactive). Further, in the assay with HOP-18, the GI50 is 58.3 µM (inactive).
As to `CC1=C2C(O)C(C(C)CO)C(O)CC2(C)C(O)CC1` (stereo not given), the GI50 in the assay on DMS-273, in the assay on LXFL 529, in the assay on DMS-114, with M19-MEL, with SNB-78 and in the assay with RXF 631 was > 100 µM (inactive) each time. Moreover, the GI50 with DLD-1 was > 100 µM (inactive).
For the molecule `C/C=C/CP(=O)(c1ccccc1)c1ccccc1`, the GI50 with DMS-273, in the assay with LXFL 529, in the assay on DMS-114, in the assay on XF498, with M19-MEL and in the assay with SNB-78 was > 100 µM (inactive) each time. Also, the GI50 in the assay on DLD-1 and with HOP-18 was > 100 µM (inactive) each time.
Regarding `NC(CO)c1ccccc1` (stereo not given), the GI50 with DMS-273, in the assay on LXFL 529, in the assay with DMS-114, in the assay with XF498, in the assay with SNB-78 and with DLD-1 was > 100 µM (inactive) in each case. Moreover, in the assay on HOP-18, the GI50 was 24.7 µM (inactive).
Turning to `CC(=O)OCC1OC(Nc2nc(O)n(C)c(=O)c2-c2csc(N)n2)C(OC(C)=O)C(OC(C)=O)C1OC(C)=O` (stereo not given), the GI50 with LXFL 529, in the assay on DMS-114, in the assay with M19-MEL, in the assay on SNB-78, in the assay with RXF 631 and in the assay with DLD-1 was > 100 µM (inactive) each time. For the same molecule, the GI50 with HOP-18 is 20 µM (inactive).
Regarding `COc1ccc(/C(=N\NC(=O)NN)C(c2ccc(OC)cc2)C2(O)C(=O)Nc3c(Cl)cc(Cl)cc32)cc1` (stereo not given), the GI50 was > 100 µM (inactive) in the assay with LXFL 529; 90.8 µM (inactive) in the assay with DMS-114; > 100 µM (inactive) in the assay on XF498; > 100 µM (inactive) with M19-MEL; > 100 µM (inactive) in the assay on SNB-78; > 100 µM (inactive) in the assay on RXF 631. In addition, the GI50 in the assay on DLD-1 and in the assay with HOP-18 was > 100 µM (inactive) each time.
